Laboratory results published in ChEMBL document CHEMBL1201862, “PubChem BioAssay data set” (2004).
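Each compound was tested at five concentrations against cells in 96-well plates for 48 hours. GI50 is the concentration that inhibits growth by half.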 The source made the active and inactive calls. No stated cut-off is given here; in the data, active = GI50 up to about 1.1 µM and inactive = higher.

Legend:
Assay in all cases: inhibition of tumour cell growth, NCI panel, 48 h
[1] = system: XF498
[2] = system: RXF 631
[3] = system: SNB-78
[4] = system: DMS-273
[5] = system: M19-MEL
[6] = system: LXFL 529
[7] = system: DLD-1

SMILES | GI50 [1] | GI50 [2] | GI50 [3] | GI50 [4] | GI50 [5] | GI50 [6] | GI50 [7]
CCN(CC)/[N+]([O-])=N/OCC(C)O (configuration not stated) | > 100 µM (inactive) | > 100 µM (inactive) | > 100 µM (inactive) | > 100 µM (inactive) | > 100 µM (inactive) |  | 
CN1CCC(O)C(CNC23CC4CC(CC(C4)C2)C3)C1 (configuration not stated) | > 100 µM (inactive) | > 100 µM (inactive) | > 100 µM (inactive) | > 100 µM (inactive) | > 100 µM (inactive) | > 100 µM (inactive) | > 100 µM (inactive)
O=C(N/C(=C\c1cc(Cl)ccc1Cl)c1nc2ccccc2[nH]1)c1ccccc1 | 26.9 µM (inactive) | 22.3 µM (inactive) | 45.4 µM (inactive) |  | 30.5 µM (inactive) | 24.5 µM (inactive) | 17.1 µM (inactive)
Cc1c(Cl)cccc1NC(=O)C(=O)C(C(=O)c1ccccc1-c1ccccc1)C1OC(=O)c2ccccc21 (configuration not stated) | 11.5 µM (inactive) | 23.7 µM (inactive) | 22.2 µM (inactive) | 24.4 µM (inactive) | 15.1 µM (inactive) | 14 µM (inactive) | 22.8 µM (inactive)
CC1CCC[P+](Cc2ccccc2)(c2ccccc2)CC1 (configuration not stated) | 21.4 µM (inactive) | > 100 µM (inactive) | 48.3 µM (inactive) | 33.6 µM (inactive) | 27.6 µM (inactive) | 15.8 µM (inactive) | > 100 µM (inactive)
[C-]#[N+]C(C)(C)C[C@H]1CC(C)C2CCC(C)C3([N+]#[C-])CCC(=C)C1[C@H]23 (some centres not stated) | 2.62 µM (inactive) | 1.86 µM (inactive) | 0.249 µM (active) | 0.286 µM (active) | 1.5 µM (inactive) | 1.82 µM (inactive) | 0.269 µM (active)
Cc1cc(N(CCC#N)CCC#N)ccc1/C=C1N=C(/C=C\c2ccccc2)N(c2ccc(C(=O)O)cc2)C\1=O |  | > 100 µM (inactive) | > 100 µM (inactive) |  | > 100 µM (inactive) | > 100 µM (inactive) | > 100 µM (inactive)
O=S(=O)(Cc1ccccc1)SCc1ccccc1 |  | 19.1 µM (inactive) | 19.3 µM (inactive) | 29.9 µM (inactive) | 22.2 µM (inactive) |  | 7.71 µM (inactive)
CCOCN1COCN(C)C1=O | > 100 µM (inactive) | > 100 µM (inactive) | > 100 µM (inactive) | > 100 µM (inactive) | > 100 µM (inactive) |  | > 100 µM (inactive)
NNC(=O)N/N=C1\C(=O)N(c2nccs2)C(=O)C(=O)C1c1nc2ccccc2s1 (configuration not stated) | > 100 µM (inactive) | > 100 µM (inactive) | > 100 µM (inactive) | > 100 µM (inactive) | > 100 µM (inactive) | > 100 µM (inactive) | > 100 µM (inactive)
COC1OC(CO)C(O)C1N (configuration not stated) |  | > 100 µM (inactive) | > 100 µM (inactive) |  |  | > 100 µM (inactive) | > 100 µM (inactive)
Cc1ccc(/C=C/C(=O)C(C)(C)CN2CCCCC2)cc1 | 11.7 µM (inactive) | 14.5 µM (inactive) | 7.29 µM (inactive) | 3.02 µM (inactive) | 11.8 µM (inactive) | 6.62 µM (inactive) | 
Oc1ccc(I)c2cccnc12 | 38.9 µM (inactive) |  | 56.9 µM (inactive) | 2.04 µM (inactive) | 14.4 µM (inactive) | 4.11 µM (inactive) | 3.99 µM (inactive)
CCOC(=O)c1nc2ccc(Cl)cc2c2c1Cc1ccccc1-2 | > 100 µM (inactive) |  | > 100 µM (inactive) | > 100 µM (inactive) | > 100 µM (inactive) | > 100 µM (inactive) | > 100 µM (inactive)
COc1cc2c(c(OC)c1OC)-c1ccc(SC)c(=O)cc1C(CC(=O)Oc1cccc([N+](=O)[O-])c1)C2 (configuration not stated) | 0.74 µM (active) | 0.502 µM (active) | 0.481 µM (active) | 0.364 µM (active) | 0.458 µM (active) | 0.619 µM (active) | 0.933 µM (active)
COc1ccc(C(=O)/C(=N/Nc2ccccc2)c2ccc(OC)cc2)cc1 | > 100 µM (inactive) | 8.43 µM (inactive) | > 100 µM (inactive) | 31.6 µM (inactive) | > 100 µM (inactive) | 25.2 µM (inactive) | 6.87 µM (inactive)
CCC1C2C=CC(CC2)N1S(=O)(=O)c1ccc(C)cc1 (configuration not stated) |  | 27.4 µM (inactive) |  | 18.2 µM (inactive) | 31.4 µM (inactive) | 17.3 µM (inactive) | 
